What was measured:
NCI/ADR-RES [1] = assay: Reversal of paclitaxel resistance in human MCF7ADR cells assessed as reduction in paclitaxel IC50 at 5 uM pretreated with compound for 4 hrs followed by paclitaxel addition and measured after 72 hrs by MTT assay (reference value: 6.68 +/- 0.35 microM); type: functional, cell-based
NCI/ADR-RES [2] = assay: Antiproliferative activity against human MCF7ADR cells incubated for 72 hrs by MTT assay; type: functional, cell-based
NCI/ADR-RES [3] = assay: Reversal of paclitaxel resistance in human MCF7ADR cells assessed as reversal fold by measuring ratio of paclitaxel IC50 to paclitaxel IC50 in presence of test compound at 5 uM incubated for 72 hrs by MTT assay; type: functional
MCF7 [4] = assay: Antiproliferative activity against human MCF7 cells incubated for 72 hrs by MTT assay; type: functional, cell-based; conditions: MCF7, 72 h
NCI/ADR-RES [5] = assay: Antiproliferative activity against human MCF7ADR cells assessed as survival rate at 5 uM incubated for 72 hrs by MTT assay; type: functional; conditions: read-out: Survival
MCF7 [6] = assay: Antiproliferative activity against human MCF7 cells assessed as survival rate at 5 uM incubated for 72 hrs by MTT assay; type: functional; conditions: read-out: Survival
MCF7 [7] = assay: Reversal of paclitaxel resistance in human MCF7 cells assessed as reversal fold by measuring ratio of paclitaxel IC50 to paclitaxel IC50 in presence of test compound at 10 uM incubated for 72 hrs by MTT assay; type: functional
NCI/ADR-RES [8] = assay: Reversal of paclitaxel resistance in human MCF7ADR cells assessed as reversal fold by measuring ratio of paclitaxel IC50 to paclitaxel IC50 in presence of test compound at 10 uM incubated for 72 hrs by MTT assay; type: functional
MCF7 [9] = assay: Reversal of paclitaxel resistance in human MCF7 cells assessed as reduction in paclitaxel IC50 at 5 uM pretreated with compound for 4 hrs followed by paclitaxel addition and measured after 72 hrs by MTT assay (reference value: 2.60 +/- 0.36 nM); type: functional, cell-based
MCF7 [10] = assay: Reversal of paclitaxel resistance in human MCF7 cells assessed as reduction in paclitaxel IC50 at 10 uM pretreated with compound for 4 hrs followed by paclitaxel addition and measured after 72 hrs by MTT assay (reference value: 2.60 +/- 0.36 nM); type: functional, cell-based
NCI/ADR-RES [11] = assay: Reversal of paclitaxel resistance in human MCF7ADR cells assessed as reduction in paclitaxel IC50 at 10 uM pretreated with compound for 4 hrs followed by paclitaxel addition and measured after 72 hrs by MTT assay (reference value: 6.68 +/- 0.35 microM); type: functional, cell-based
MCF7 [12] = assay: Reversal of paclitaxel resistance in human MCF7 cells assessed as reversal fold by measuring ratio of paclitaxel IC50 to paclitaxel IC50 in presence of test compound at 5 uM incubated for 72 hrs by MTT assay; type: functional

Compound	IC50 (NCI/ADR-RES [1]) [µM]	IC50 (NCI/ADR-RES [2]) [µM]	Ratio (NCI/ADR-RES [3])	IC50 (MCF7 [4]) [µM]	viability at 5 µM (NCI/ADR-RES [5]) [%]	viability at 5 µM (MCF7 [6]) [%]	Ratio (MCF7 [7])	Ratio (NCI/ADR-RES [8])	IC50 (MCF7 [9]) [µM]	IC50 (MCF7 [10]) [µM]	IC50 (NCI/ADR-RES [11]) [µM]	Ratio (MCF7 [12])
COc1ccc(-c2c(C)nc3cc(-c4cccs4)nn3c2-c2cc(OC)c(OC)c(OC)c2)cc1	0.049	> 20	136.32	> 20	85.1	93.6						
COc1ccc(-c2c(C)nc3cc(C4CC4)nn3c2-c2cc(OC)c(OC)c(OC)c2)cc1	0.12	> 20	51.28	> 20	95.1	> 99						
COc1cc(-c2c(-c3ccc(Br)cc3)c(C)nc3cc(-c4ccco4)nn23)cc(OC)c1OC	5.86	> 20	1.14	> 20	93.6	94.5						
COc1cc(-c2c(C)nc3cc(C4CC4)nn3c2-c2cc(OC)c(OC)c(OC)c2)cc(OC)c1OC	0.1	> 20	66.8	> 20	90.5	95.6						
COc1ccc(-c2c(C)nc3cc(-c4ccccc4)nn3c2-c2cc(OC)c(OC)c(OC)c2)cc1OC	0.048	> 20	139.16	> 20	89.2	92.7						
COc1ccc(-c2c(C)nc3cc(-c4ccccc4)nn3c2-c2cc(OC)c(OC)c(OC)c2)cc1	0.048	> 20	151.81	7.94	89.2	90.2						
COc1ccc(-c2c(C)nc3cc(-c4ccco4)nn3c2-c2cc(OC)c(OC)c(OC)c2)cc1OC	0.087	> 20	76.78	> 20	97.1	92.4						
COc1cc(-c2c(-c3ccc(F)cc3)c(C)nc3cc(-c4cccs4)nn23)cc(OC)c1OC	0.12	> 20	55.67	> 20	90.7	95.6						
COc1ccc(-c2c(C)nc3cc(Br)nn3c2-c2cc(OC)c(OC)c(OC)c2)cc1	1.4	> 20	4.77	> 20	91.2	95.4						
COc1ccc(-c2c(C)nc3cc(C#N)nn3c2-c2cc(OC)c(OC)c(OC)c2)cc1	0.62	> 20	10.77	> 20	90.6	93.9						
COc1ccc(-c2c(C)nc3cc(C)nn3c2-c2cc(OC)c(OC)c(OC)c2)cc1	0.82	> 20	8.14	> 20	95.2	> 99						
COc1ccc(CCN(C)CCCC(C#N)(c2ccc(OC)c(OC)c2)C(C)C)cc1OC (stereo not given) [VERAPAMIL]	0.17	> 20	39.29	> 20	> 99	> 99	0.97	96.11	0.00102	0.00268	0.0695	2.55
COc1cc(-c2c(C)nc3ccnn3c2-c2cc(OC)c(OC)c(OC)c2)cc(OC)c1OC	2.12	> 20	3.15	> 20	> 99	> 99						
COc1cc(-c2c(-c3ccc(Cl)cc3)c(C)nc3cc(-c4ccco4)nn23)cc(OC)c1OC	4.3	> 20	1.55	> 20	94.7	95.8						
